Tested on: male ICR mouse
Test: Passive avoidance test: dementia treatment test (scopolamine)
Type: in vivo
Settings: scopolamine 1 mg/kg intraperitoneally after training; test after 24 hours; FIG. 5B
Method: A passive avoidance test was carried out using a Gemini avoidance system (San Diego Instruments, USA) one hour after extracts (fraction T, fraction C, fraction CM, or fraction M) of Fructus Psoraleae were orally administered to a male ICR mouse (20 g) in a dose of 10 mg/kg. The test was modified on the basis of a method by Kumar, et al. and carried out as follows (Kumar, V., Singh, P. N., Muruganandan, A. V., Bhattacharya, Effect of Indian Hypericum perforatum Linn on animal models of cognitive dysfunction; J Ethnopharmacology 72, p 119-128, 2000).
On the first day of a training test, a mouse was put into the bright box to be acclimated for 300 seconds, prior to moving the mouse into a dark box by automatically opening a door. If the mouse moved into a dark box, it was electrically stimulated one second at 0.3 mA. As soon as a training session was finished, scopolamine was intraperitoneally administered in a dose of 1 mg/kg. At the test after 24 hours, the mouse was acclimated in the bright box for 300 seconds, prior to moving the mouse into the dark box by opening a door. The time to move into the dark box was measured at this time. […]

SMILES: CN1[C@@H]2C[C@@H](OC(=O)[C@H](CO)c3ccccc3)C[C@H]1[C@@H]1O[C@@H]12 [scopolamine]
- memory failure compared with a control group: 66.6%

— patent US20060099284A1, “Composition containing an extract of fructus psoraleae for inhibiting anxiety and depression, improving memory and treating dementia” (priority 2004, published 2006)
